{"source": "patent US20250122193A1", "about": "“NOVEL PYRIDOCARBAZOLIUM COMPOUNDS AND MEDICAL USES THEREOF” (MyCural Therapeutics, priority 2021, published 2025)", "key": {"p53 expression": {"tested_on": "p53 expression", "assay": "p53 expression by western blot", "format": "cell-based", "details": "5 μM, HCT116 and Kelly cells", "method": "A) Measurement of MYC mRNA expression by RTqPCR after treatment with MYCMI-7 and different topoisomerase inhibitors at indicated concentrations. […] D) Western blot analysis of p53 and p21 expression after exposure to 5 μM MYCMI-7, ellipticine or camptothecin (CPT) in HCT116 cells. E) Western blot analysis of phospho-ATM, total ATM and p53 expression after exposure to indicated concentrations of MYCMI-7 and ellipticine in A375 cells after 3 hrs treatment.\nFor western blot equal amounts of proteins ([…]) were separated on a 4-12% SDS-PAGE gel. Proteins were transferred to Immobilion-P membrane (Millipore) and detected by immunostaining and chemoluminescence (Immobilion western HRP substrate; Millipore). For immunoprecipitations 500-1000 μg of protein was used. […] Briefly, cells were crosslinked with 1% formaldehyde on ice for 6 minutes. Nuclear chromatin was sonicated on ice to fragments from 0.3 kb to 0.5 kb. Nuclear chromatin equivalent to 2.5×10^7 cells was immunoprecipitated with 2 μg antibody."}, "ODC1 expression": {"tested_on": "ODC1 expression", "assay": "MYC target gene ODC1 expression by qPCR", "format": "cell-based", "details": "5 μM", "method": "FIG. 1: MYCMI-7 (Compound Example 1) inhibits the MYC:MAX interaction in cells, bind MYC in vitro, and blocks MYC function. A) Molecular structure of MYCMI-7. B-E) split Gaussia luciferase (GLuc) assay. MYC or MYCN and MAX Gluc constructs were co-transfected into HeLa cells together with a firefly luciferase vector. 24 hours post transfection cells were treated with compounds, and after another 17-24 hours cells were harvested and both GLuc and firefly luciferase activities were measured. The mean of three different experiments is shown. Treatment with: B) 5 μM of MYCMI-7, 64 μM 10058-F4 or 5 μM JQ1, respectively, C) 6.5 μM MYCMI-7 on cells expressing MYC:MAX GLuc vs. GCN4:GCN4 GLuc, D) 5 μM MYCMI-7 and 5 μM ellipticine. E) 5 μM MYCMI-7 for various time points. F) in situ proximity ligation assay (isPLA). […] MYC:GAL4 was used as negative control in the isPLA assay. G) Quantification of isPLA dots. (H) Co-immunoprecipitation (co-IP) of endogenous MYC and MAX proteins from MCF7 cells after treatment with 5 μM MYCMI-7 at various times. IP=immunoprecipitation; W=western blot. […] J) MYC target gene ODC1 expression after treatment with 5 μM MYCMI-7, quantified by qPCR. […] L) Recombinant MYC bHLHZip protein domain immobilized onto a CM5 chip was subjected to various concentrations of MYCMI-7 and the complex of MYCbHLHZip-MYCMI-7 was measured as response units by SPR. […]"}}}
{"smiles": "CCN(CC)CC[n+]1ccc2c(C)c3[nH]c4ccccc4c3c(C)c2c1", "note": "[MYCMI-7, 2-(5,11-Dimethyl-6H-25-pyrido[4,3-b]carbazol-2-yl)-N,N-diethylethanamine bromide]", "values": [{"measurement": "p53 expression", "setting": "p53 expression; early (3 hrs)", "value": "no effect"}, {"measurement": "p53 expression", "setting": "p53 expression; late (24 hrs)", "value": "only a minor increase"}, {"measurement": "ODC1 expression", "setting": "ODC1 expression", "value": "reduced ODC1 expression"}]}
